Earlier results as cited in patent US6623763B2, “Pharmaceutical preparation adhering to the skin, in particular a transdermal therapeutic system for the release of 17-β-estradiol to the human organism” (LTS Lohmann Therape-System AG, priority 1996, dated 2003).

Columns and labels:
[1] = system: Alzheimer's and Parkinson's disease; details: uniform supply of estradiol

temperature of short-term heat treatment without decomposition	SMILES	efficacy for prophylaxis of Alzheimer's and Parkinson's disease [1]
up to 170 °C	C[C@]12CC[C@@H]3c4ccc(O)cc4CC[C@H]3[C@@H]1CC[C@@H]2O [17-β-estradiol semihydrate, 17-β-estradiol-semihydrate]	
	C[C@]12CC[C@@H]3c4ccc(O)cc4CC[C@H]3[C@@H]1CC[C@@H]2O [17-β-estradiol]	effective
